Reference: patent US5437864A, “Method of inhibiting blood coagulation in extracorporeal circulation by inhibiting human tissue factor” (The Scripps Research Institute, priority 1992, dated 1995)
Read-outs that look alike come from different tables or passages of the source. No end group written: not given here.

Tests used:
factor VII/VIIa [1] = biological target: T1, factor VII/VIIa (Homo sapiens, UniProt P08709); assay: Inhibition of huTF-initiated coagulation by polypeptide analogs of huTFh; assay type: biochemical; details: for inhibition of huTF-initiated coagulation, dose-response (FIG. 12): non-lipidated polypeptides, various concentrations
T1 construct: from tissue
T1 sequence (P08709 61-466): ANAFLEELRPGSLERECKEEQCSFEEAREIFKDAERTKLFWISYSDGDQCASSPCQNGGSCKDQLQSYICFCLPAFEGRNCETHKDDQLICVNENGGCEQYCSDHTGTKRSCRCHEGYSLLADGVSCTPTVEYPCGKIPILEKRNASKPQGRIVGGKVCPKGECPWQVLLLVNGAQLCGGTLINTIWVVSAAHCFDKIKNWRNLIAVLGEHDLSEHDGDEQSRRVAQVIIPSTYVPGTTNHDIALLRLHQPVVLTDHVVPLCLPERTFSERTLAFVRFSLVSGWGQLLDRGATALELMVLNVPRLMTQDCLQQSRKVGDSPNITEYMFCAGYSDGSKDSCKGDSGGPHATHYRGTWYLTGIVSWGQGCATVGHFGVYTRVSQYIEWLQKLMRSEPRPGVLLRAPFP
Description: The ability of the polypeptides of the present invention to inhibit huTF-initiated coagulation were assayed by first incubating the polypeptides in the presence of factor VII/VIIa and calcium ions, and then adding this mixture to factor VII/VIIa-deficient plasma and evaluating clotting times.
Human factor VII/VIIa was isolated as described in Example 3. Ten microliters of a solution of 200 ng of this isolated factor VII/VIIa per ml of HBS/BSA was added to a solution comprising 100 ul of HBS, 20 ul of 25 mM CaCl2, and with 100 ul of TBS/Triton containing synthetic polypeptide. Numerous admixtures were so prepared which contained varying concentrations of the polypeptide and were then maintained at 37 degrees C. for 15 minutes. Relipidated tissue factor prepared as described in Example 4 was diluted in HBS/BSA such that 10 ul would yield a coagulation time of approximately 45 seconds when tested in the coagulation assay described in Example 2. The above maintained admixture was further admixed with this 10 ul dilution of relipidated huTF, with 100 ul of 25 mM CaCl2, and with 100 ul of factor VII/VIIa-deficient plasma (George King Bio-Medical, Inc., Overland Park, Kans.) diluted 1 part plasma to 1.5 parts HBS. The clotting time was then determined and plotted as described in Example 2. A prolongation of clotting time was taken to indicate inhibition of coagulation by the synthetic polypeptide. Percent inhibition was calculated as described in Example 10. Polypeptides producing at least a 30% inhibition of coagulation were considered huTFh binding site polypeptide analogs, i.e., polypeptides p26-49, p146-167 and p161-189 as shown in section I of Table 4.
Lipidated synthetic peptides were prepared in the manner described in Example 4 for relipidation of isolated huTF except that synthetic polypeptide was substituted for isolated huTF. The ratio 52 to 1 of lipid to polypeptide (w/w) was routinely utilized. Lipidated polypeptides producing at least 30% inhibition of coagulation were considered huTFh binding site polypeptide analogs, when present in lipidated form, i.e., those polypeptides shown in section II of Table 4.
The results of this study are shown in FIG. 12 and indicate that p24-35 and p152-169 are capable of inhibiting 45% and 25% respectively, of the huTF-initiated coagulation when utilized at 10 uM concentrations. It should be noted that in this study background inhibitions such as for those peptides indicated by a closed circle in FIG. 12 were lower than the study shown in Table 4. As a result, polypeptides producing at least a 20% inhibition of coagulation at a concentration of 10 uM in this study were considered huTF binding site polypeptide analogs.

factor VII/VIIa [2] = biological target: T1, factor VII/VIIa; assay: Inhibition of factor X activation on J82 cells by huTFh polypeptides; assay type: cell-based; details: for Optical Density: O.D. at 405 nm of factor Xa chromogenic product, 50 ul polypeptide solution at 100 uM, PBS control 0.960, no factor VII 0.005, significant if about 0.500 or less
Description: Fifty microliters (ul) of a solution containing a huTF polypeptide analog at 100 uM […] in TBS was added to each well of a 96-well of a 96-well flat bottom polystyrene assay plate. Then to each well was admixed 25 ul of a solution containing factor VII/VIIa isolated as described in Example 3 at a concentration of 1 nm in TBS, further admixed with 25 ul of 20 mM calcium chloride in TBS and the resulting admixture is maintained at room temperature for 30 minutes.
Human bladder cell carcinoma J82 cells were obtained from the American Type Culture Collection (ATCC HTB 1; Rockville, Md.) and cultured as described by Fair et al., J. Biol. Chem., 262:11692-11698 (1987) which methods are incorporated herein by reference.
5×10^4 J82 cells are suspended into 50 ul of TBS and admixed to each well of the polystyrene assay plate after the above maintenance period. Immediately thereafter 25 ul of factor X, isolated as described by Fair et al., J. Biol. Chem., 262:11692-11698 (1987), at a concentration of 100 nM in TBS and 50 ul of Xa chromogenic substrate S-2222 (1 mg/ml in TBS) were admixed, and the resulting admixture was maintained for two minutes at room temperature to form a chromogenic reaction product containing solution.
The amount of chromogenic product formed was quantitated by measuring the amount of optical density (O.D.) at 405 nanometers (nm) using a V-max 96 well spectrophotometer (Molecular Devices, Mountain View, Calif.). Controls with PBS in place of polypeptide or with no factor VII added were also run to establish the maximum and minimum possible O.D. values.

[3] = phospholipidated peptides, 10 μM
[4] = non-phospholipidated peptides, 10 μM, read-out: Inhibition (Percent Inhibition of huTF-initiated coagulation)
[5] = Example 17 study (FIG. 12), non-lipidated, 10 uM, read-out: inhibition of huTF-initiated coagulation
[6] = phospholipidated peptides, 10 μM, read-out: Inhibition (Percent Inhibition of huTF-initiated coagulation)
[7] = non-phospholipidated peptides, 10 μM

Substance | Optical Density (factor VII/VIIa [2]) | inhibition at 10 µM (factor VII/VIIa [1]; [4]) [%] | also measured
H--TKSGDWKSKCFYTTDTECDLTDEIVKDVKQTY--OH (H-TKSGDWKSKCFYTTDTECDLTDEIVKDVKQTY-OH; cysteine pairing not given here) [p40-71] | 0.814 ± 0.053 | – | inhibition of huTF-initiated coagulation, dose-response (FIG. 12) (factor VII/VIIa [1]): no substantial inhibition; Inhibition (Percent Inhibition of huTF-initiated coagulation) (factor VII/VIIa [1]; [3]): 65.0%
H-DSPVECMGQEKGEFREIFYIIGA-OH [p204-226] | 0.715 ± 0.042 | 20 | –
H-ECDLTDEIVKDVKQTY-OH [p56-71, H--ECDLTDEIVKDVKQTY--OH] | – | 25 | –
H-EPKPVNQVYTVQISTKSGDWKSKC-OH [p26-49] | 0.437 ± 0.020 | – | binding to factor VII/VIIa and inhibition of factor X activation (factor VII/VIIa [2]): bind to factor VII/VIIa and inhibit its ability to form a TF:VII/VIIa complex that can activate factor X
H-EWEPKPVNQVYT-OH [p24-35, H--EWEPKPVNQVYT--OH] | 0.477 ± 0.017 | – | inhibition at 10 µM (factor VII/VIIa [1]; [5]): 45%; binding to factor VII/VIIa and inhibition of factor X activation (factor VII/VIIa [2]): bind to factor VII/VIIa and inhibit its ability to form a TF:VII/VIIa complex that can activate factor X
H-IYTLYYWKSSSSGKKTAK-OH [p152-169, H--IYTLYYWKSSSSGKKTAK--OH] | – | – | inhibition at 10 µM (factor VII/VIIa [1]; [5]): 25%
H-LARVFSYPAGNVESTGSAGEPLYENSPEFTPYLC-OH [p72-104] | 0.781 ± 0.047 | 25 | inhibition of huTF-initiated coagulation, dose-response (FIG. 12) (factor VII/VIIa [1]): no substantial inhibition
H-QAVIPSRTVNRKSTDSPVEC-OH [p190-209] | 0.625 ± 0.031 | 20 | –
H-RDVFGKDLIYTLYYWK-OH [p144-159, H--RDVFGKDLIYTLYYWK--OH] | 0.507 ± 0.053 | – | binding to factor VII/VIIa and inhibition of factor X activation (factor VII/VIIa [2]): bind to factor VII/VIIa and inhibit its ability to form a TF:VII/VIIa complex that can activate factor X
H-SGTTNTVAAYNLTWKSTNFKTILEWEPKPV-OH [p1-30] | 1.098 ± 0.028 | 25 | inhibition at 10 µM (factor VII/VIIa [1]; [6]): 81%
H-SSSGKKTAKTNTNEFLIDVDKGENYCFSV-OH [p161-189] | – | ≥ 30 | inhibition of huTF-initiated coagulation, dose-response (FIG. 12) (factor VII/VIIa [1]): no substantial inhibition; inhibition at 10 µM (factor VII/VIIa [1]; [6]): 94%
H-TKVNVTVEDERTLVRRNNTFLSLRDVFGKDLIYTL-OH [p121-155] | 0.889 ± 0.067 | 10 | inhibition at 10 µM (factor VII/VIIa [1]; [6]): 55%
H-VFGKDLIYTLYYWKSSSSGKKT-OH [p146-167] | 0.004 ± 0.001 | – | inhibition at 10 µM (factor VII/VIIa [1]; [6]): 80%; binding to factor VII/VIIa and inhibition of factor X activation (factor VII/VIIa [2]): bind to factor VII/VIIa and inhibit its ability to form a TF:VII/VIIa complex that can activate factor X
H-YENSPEFTPYLETNLGQPTIQSFEQVGTKV-OH [p94-123] | 0.818 ± 0.055 | 20 | inhibition of huTF-initiated coagulation, dose-response (FIG. 12) (factor VII/VIIa [1]): no substantial inhibition; inhibition at 10 µM (factor VII/VIIa [1]; [6]): 93.7%
H-YWKSSSSGKKTAK-OH [p157-169, H--YWKSSSSGKKTAK--OH] | 0.389 ± 0.035 | – | binding to factor VII/VIIa and inhibition of factor X activation (factor VII/VIIa [2]): bind to factor VII/VIIa and inhibit its ability to form a TF:VII/VIIa complex that can activate factor X
p1-18: huTFh polypeptide; designation represents included residues of FIG. 1; sequence not printed (SGTTNTVAAYNLTWKSTN; UniProt P13726 33-50, looked up, fragment) | 1.007 ± 0.087 | – | –
p11-28: huTFh polypeptide; designation represents included residues of FIG. 1; sequence not printed (NLTWKSTNFKTILEWEPK; UniProt P13726 43-60, looked up, fragment) | 0.687 ± 0.071 | – | –
p26-40: phospholipidated huTFh polypeptide analog of Table 4; sequence not printed; probably p26-49 (EPKPVNQVYTVQIST; also: phospholipidated (position not given here); UniProt P13726 58-72, looked up, fragment) | – | – | Inhibition (Percent Inhibition of huTF-initiated coagulation) (factor VII/VIIa [1]; [3]): 83.0%
p40-49: huTFh polypeptide analog of Table 4; sequence not printed; probably p41-49 (TKSGDWKSKC; UniProt P13726 72-81, looked up, fragment) | – | – | Inhibition (Percent Inhibition of huTF-initiated coagulation) (factor VII/VIIa [1]; [7]): 25.0%
p41-71: huTFh polypeptide analog of Table 4; sequence not printed; probably p40-71 (KSGDWKSKCFYTTDTECDLTDEIVKDVKQTY; UniProt P13726 73-103, looked up, fragment) | – | – | Inhibition (Percent Inhibition of huTF-initiated coagulation) (factor VII/VIIa [1]; [7]): 25.0%
p50-71: phospholipidated huTFh polypeptide analog of Table 4; sequence not printed; probably p56-71 (FYTTDTECDLTDEIVKDVKQTY; also: phospholipidated (position not given here); UniProt P13726 82-103, looked up, fragment) | – | – | Inhibition (Percent Inhibition of huTF-initiated coagulation) (factor VII/VIIa [1]; phospholipidated peptides, 30 μM): 73.3%
p161-190: huTFh polypeptide of Table 10; sequence not printed; probably p161-189 (SSSGKKTAKTNTNEFLIDVDKGENYCFSVQ; UniProt P13726 193-222, looked up, fragment) | 0.600 ± 0.023 | – | –
p244-263: huTFh polypeptide of Table 10; sequence not printed; probably p245-263 (KCRKAGVGQSWKENSPLNVS; UniProt P13726 276-295, looked up, fragment) | 0.619 ± 0.047 | – | –
